According to patent US10851400B2, “Assay for high-throughput identification of therapeutic compounds” (priority 2016, dated 2020):
Converted amounts (≈) assume the structure as drawn.

Key:
[1] = test system: Acinetobacter baumanii, ATCC 19606; experiment: Broth minimum inhibitory concentration (MIC) assay of K15; format: cell-based, Acinetobacter baumannii; settings: A. baumannii; broth MIC in CAMHB, 18-24 hours
Protocol: (§1) Peptoid K15 was analyzed via a traditional broth minimum inhibitor concentration (MIC) assay against seven different ESKAPE pathogens (Acinetobacter baumanii, ATCC 19606; Enterococcus faecalis, ATCC 29212; Enterococcus faecium, ATCC 19434; Escherichia coli, ATCC 25922; Klebsiella pneumoniae, ATCC 700603; Pseudomonas aeruginosa, ATCC 27853; Staphylococcus aureus, ATCC 29213). For each of the bacterial strains screened in the ESKAPE panel, 1-3 isolated colonies were collected from a TSA plate by a flame sanitized wire loop and resuspended in 5 mL of TSB. The solutions were incubated at 37° C. for 18-24 hours. After the growth period, the turbidity was measured at 600 nm and adjusted to an optical density of 0.08-0.13 by diluting with TSB for an approximate concentration of 1×10^8 CFU/mL. Once the desired OD was achieved, 20 μL of the bacteria suspension were diluted 1:20 in 380 μL Cation Adjusted Mueller-Hinton broth (CAMHB) for a final concentration of 5×10^6 CFU/mL.
(§2) 4 μL of a 10 mM stock of K15 were diluted in […] CAMHB for each bacterial strain assayed (a total of 28 μL stock in 2.478 mL broth for ESKAPE panel). […]
(§3) The prepared plates were incubated for another 18-24 hours. Their respective absorbance at 600 nm was analyzed on a SpectraMax M5 Plate Reader. […] Absorbance at 555, 570, and 585 nm was analyzed to determine viable cells having survived treatment by the antimicrobial compound. […]

[2] = test system: E. coli (ATCC 25922); experiment: PLAD assay, zone of inhibition around beads in soft agar
[3] = test system: Enterococcus faecium, ATCC 19434; experiment: Broth minimum inhibitory concentration (MIC) assay of K15; format: cell-based; settings: E. faecium; broth MIC in CAMHB, 18-24 hours
Protocol: as §1, §2, §3

[4] = test system: ESKAPE pathogens; experiment: Broth MIC assay of K15 against the panel of seven ESKAPE pathogens; format: cell-based; settings: seven pathogens tested
Protocol: as §1, §2, §3

| Molecule | MIC [1] | zone of inhibition ([2]; proof-of-concept library on PLAD linker, 14 mM TCEP, 37° C. for 18 hours) | MIC [3] | antimicrobial efficacy against the ESKAPE pathogens [4] | zone of inhibition ([2]; PLAD linked C134mer beads, DTT, BME or TCEP at 0, 2, 6, 10, and 14 mM) |
| --- | --- | --- | --- | --- | --- |
| CCCCCCCCCCCCCNCC(=O)N(CCN)CC(=O)N(CC(N)=O)C(C)c1ccccc1 (stereo not drawn) [K15, NTri-Nae-NPea] | 25 µg/mL (≈ 48.3 µM) | largest average zone of inhibition | 25 µg/mL (≈ 48.3 µM) | modest efficacy against six of the seven pathogens tested |  |
| NTri-NLys-NPea-NPea-NLys [C134mer, reference compound] |  |  |  |  | concentration dependent zones of inhibition |
